According to US7078398B2, “Compositions and methods for treating or preventing convulsions or seizures” (Vela Pharamaceuticals, Inc., priority 2001, dated 2006):
“Also recorded” adds a separate entry of the source. Read-outs that look alike come from different tables or passages of the source.

Legend:
[1] = test system: convulsions induced by the compound Ro 5-4864 in mice; settings: 100 mg/kg; cited from earlier work
[2] = test system: picrotoxin-induced seizures in male NSA mice; assay: animal or person; type: in vivo; settings: for anti-convulsant activity against picrotoxin-induced seizures (conclusion): NSA mice; for ED50: Mus musculus; for ED50 / ED50 (95% confidence limit): i.p. 15 minutes prior to picrotoxin 5 mg/kg s.c.
Experimental: Anticonvulsant activity against picrotoxin-induced seizures is considered evidence of clinical antiepileptic potential and reason for further evaluation of a test compound's anticonvulsant profile (Swinyard, E. A. et al., General principles: experimental detection, quantification and evaluation of anticonvulsants. In: Antiepileptic Drugs, D. M. Woodbury et al., eds. Raven Press, New York (1990) pp. 111–126).
Picrotoxin (5 mg/kg, Sigma Chem. Co., St. Louis, Mo., USA) was dissolved in saline and administered subcutaneously to induce seizures. In addition, picrotoxin alone was administered to seven animals as a control. All test drugs were dissolved in dimethylsulfoxide (DMSO).
After picrotoxin injection, mice were placed into a plexiglass cage for 30 minutes of observation. The appearance of seizures was defined as the presence of a single episode of clonic or tonic activity (including myoclonic jerks) during the 30 minute observation period. […] Animals were euthanized immediately after the observation period by CO2 inhalation. The ED50 (the dose of test compound at which half of the animals were protected against picrotoxin-induced seizures) values and their 95% confidence limits were calculated by the method of Litchfield and Wilcoxon (J. Pharmacol. Exp. Ther. 96:99–113 (1949)).

[3] = test system: convulsions induced by tryptamine in mice; settings: Table 6 of Ito; cited from earlier work
[4] = test system: picrotoxin convulsions in Tuck No. 1 mice; settings: cited from earlier work
[5] = test system: pentylenetetrazole convulsions in Tuck No. 1 mice; settings: cited from earlier work
[6] = Example 2, enantiomers of Example 1, 30 minute observation
[7] = Example 4, enantiomers of Example 3

Row | SMILES | myoclonic jerks in treated mice [1] | number of mice having convulsions [1] | anti-convulsant activity against picrotoxin-induced seizures (conclusion) ([2]; Example 2) | anti-convulsant activity (conclusion) ([2]; Example 4) | ED50 ([2]; read-out: ED50 (95% confidence limit), Example 2, enantiomers of Example 1, 30 minute observation) | ED50 ([2]; read-out: ED50 (95% confidence limit), Example 4, enantiomers of Example 3) | incidence of convulsions [3] | number or severity of convulsions ([4]; 10–50 mg/kg, 6 mg/kg of picrotoxin) | effect in combination with 3 mg/kg picrotoxin ([4]; 25–50 mg/kg) | effect as an anti-convulsant ([5]; 10–25 mg/kg, 60 mg/kg of pentylenetetrazole) | effect in combination with 30 mg/kg pentylenetetrazole ([5]; 25–50 mg/kg) | protection against picrotoxin-induced seizures ([2]; Example 2, 40 mg/kg i.p.) | ED50 (95% confidence limit) [2, 6] | anti-convulsant activity compared with the racemate ([2]; Example 4, highly pure S-tofisopam) | ED50 (95% confidence limit) [2, 7] | inhibition of picrotoxin-induced convulsions ([2]; Example 2, at either 20 or 50 mg/kg i.p.) | protection against picrotoxin-induced seizures ([2]; Example 4, 90 mg/kg) | protection against picrotoxin-induced seizures ([2]; Example 4, 128 mg/kg) | protection from picrotoxin-induced seizures, all doses tested ([2]; Example 4, 32-128 mg/kg) | anticonvulsant activity ([2]; Example 4, doses of 32 mg/kg and 64 mg/kg)
1 | CCC1C(C)=NN=C(c2ccc(OC)c(OC)c2)c2cc(OC)c(OC)cc21 (racemic) [tofisopam, 1-(3,4-dimethoxy-phenyl)-4-methyl-5-ethyl-7,8-dimethoxy-5H-2,3-benzodiazepine] | all of the treated mice still experienced myoclonic jerks | reduced the number of mice having convulsions | intrinsic anti-convulsant activity | intrinsic anti-convulsant activity | 37.8 mg/kg | 51.4 mg/kg | no effect | no affect | proconvulsant activity | no effect | proconvulsant activity |  |  |  |  |  |  |  |  | 
2 | CC[C@@H]1C(C)=NN=C(c2ccc(OC)c(OC)c2)c2cc(OC)c(OC)cc21 [S-tofisopam] |  |  | intrinsic anti-convulsant activity | intrinsic anti-convulsant activity |  |  |  |  |  |  |  | over 60% | ~35 (28–43) mg/kg | significantly greater anti-convulsant activity | 15.1 (7.6–30.1) mg/kg |  |  |  |  | 
3 | CC[C@H]1C(C)=NN=C(c2ccc(OC)c(OC)c2)c2cc(OC)c(OC)cc21 [R-tofisopam] |  |  | no anti-convulsant activity |  |  |  |  |  |  |  |  |  | Inactive |  | could not be calculated; also recorded: not calculable | did not inhibit | no further increase in protection | no protection | < 50% | exhibits anticonvulsant activity
